Literature values, collected in patent US20110052685A1, “GASTRIC RETENTIVE PHARMACEUTICAL COMPOSITIONS FOR IMMEDIATE AND EXTENDED RELEASE OF ACETAMINOPHEN” (DEPOMED, INC., priority 2009, published 2011).

CC(=O)Nc1ccc(O)cc1 [acetaminophen, N-(4-hydroxyphenyl)acetamine]
Half-life (elimination, from Rawlins et al., 1977): (2.7) hr
1st Order Elimination Constant K (from Rawlins et al., 1977): 0.257 h⁻¹
Oral Bioavaiability F (from Rawlins et al., 1977): 0.89
Volume of Distribution V (from Rawlins et al., 1977): 78800 mL
Absorption Half-life (oral immediate release, fed mode): (0.76) hr
1st Order Absorption Constant (under fed mode - with food) ka (oral immediate release, from Divoll et al., 1982): 0.912 h⁻¹
